One substance from US7339026B2, “mda-9 protein” (The Trustees of Columbia University In the City of New York, priority 1996, dated 2008) can be followed below.

In assay [1] the test system is mda-9 expression in FM516-SV cells. Kind of assay: mda-9 RNA expression by Northern blotting, densitometer comparison with GAPDH. The format is cell-based, human. As for the experimental part:
FIG. 2. Effects of IFN-β+MEZ on mda-9 expression in human melanoma cells and an SV40-immortalized human melanocyte cell line. The indicated cell line was grown in the presence or absence of IFN-β+MEZ (2000 U/ml+10 ng/ml) for 96 h and RNA was analyzed as described in FIG. 1.
Cell Lines and Culture Conditions. H0-1 is a melanotic melanoma cell line produced from a metastatic inguinal lymph node lesion from a person and was used between passages 150 and 175 (13,21,22). FM516-SV is a normal human melanocyte culture immortalized by the SV40 T-antigen gene (23). Additional melanoma cell lines established from patients with metastatic melanomas that were evaluated, include LO-1, SH-1, WM239, MeWo, SKMEL-p53 wt (containing a wild-type p53 gene) and SKMEL-p53 mut (containing a mutant p53 gene) (13,21,24). Cultures were grown at 37° C. in a 95% air 5% C02-humidified incubator in Dulbecco's modified Eagle's medium (DMEM) supplemented with 5 or 10% fetal bovine serum (Hyclone, Utah). […] Total cytoplasmic RNA was isolated at various time points and analyzed for mda-9 and GAPDH expression.
RNA Isolation, Northern Blotting and Southern Blotting of Genomic DNAs. […] RNA blots were quantitated by densitometric analysis using a Molecular Dynamics densitometer (Sunnyvale, Calif.) (34). […]

Assay [2] has as its system H0-1 cells. Briefly: Effect of interferons on growth of H0-1 cells (FIG. 3). The format is cell-based, human. The note with it: 4 d treatment with 100 U/ml interferon. As for the experimental part:
FIG. 3. […] Results are the average cell number ±S.D. from the mean.
Experiments were performed to determine if a relationship exists between growth suppression and reduced mda-9 expression. To test this connection, the effect of interferon and MEZ treatment on proliferation and mda-9 expression in human melanoma cells was determined.

Turning to “IFN-γ: Recombinant human IFN-γ (type II, immune interferon)”, the “dose giving maximum enhancing effects on mda-9 expression” value in assay [1] (IFN-γ dose-response) worked out at 10 U/ml. Further, the “low dose at which mda-9 expression is elevated” value in assay [1] (IFN-γ dose-response (data not shown)) was determined as 0.1 U/ml. The “reduction of H0-1 growth” value in assay [2] was about 43%.
